From US4931457A, “Naphthylamino-and naphthyloxy-pyridinamine comounds useful as topical antiinflammatory agents for the treatment of skin disorders” (Hoechst-Roussel Pharmaceuticals Inc., priority 1989, dated 1990)
Counter-ions that a name gives are not always drawn. Like-named read-outs stand apart in the source and are kept apart here.

Key:
porcine pancreatic PLA2 = porcine pancreatic PLA2 (Sus scrofa, UniProt P00592); test: biochemical
Method: The ability of a compound to modulate PLA2 activity (cleavage of ^14 C-dipalmitoyl phosphotidylcholine at the 2-position to ^14 C-palmitic acid) was quantitated in this assay. The reaction mixture contained Tris buffer (25 mM), pH 8.0, calcium chloride (2.0 mM), bovine serum albumin (0.5 mg), dipalmitoyl phosphotidylcholine (8×10^-5M), (^14 C-palmitoyl)dipalmitoyl phosphotidylcholine (6×10^3cpm), porcine pancreatic PLA2 (3.2 units) and the test compound. The reaction was run at 37° C. in a shaking incubator. The reaction was quenched and an internal standard was added in order to determine sample recovery. The samples were loaded onto C18 columns, eluted with ethanol, and the radioactivity was then measured. […] See Feyen, J. H. M., et al., Journal of Chromatography 259 (1983), pp. 338-340.

[1] = system: ear edema induced by topical application of TPA (phorbol 12-myristate acetate); test: TPA-Induced Ear Edema (TPAEE); type: in vivo, Female Swiss Webster mice; settings: for TPAEE, ear edema: 10 μg (10 μg/ear), TPA 10 μg/ear, five hours
Method: The purpose of this assay was to determine the ability of a topically-applied compound to prevent ear edema induced by topical application of TPA (phorbol 12-myristate acetate). Female Swiss Webster mice topically received TPA (10 μg/ear) on the right ear and vehicle on the left ear. The test compound (10 μg/ear) was applied to both ears. After five hours, the animals were sacrificed and an ear punch (4 mm) was taken from each ear. The difference in right and left ear punch weights for each animal was determined to assess activity. […] See Young, J. M. et al., J. Invest. Dermatol., 80 (1983), pp. 48-52.

[2] = system: mouse ear edema induced by topical application of arachidonic acid; test: Arachidonic Acid-Induced Ear Edema (AAEE); type: in vivo, Female Swiss Webster mice; settings: for AAEE, ear edema: 1 mg (1.0 mg/ear), arachidonic acid 4 mg/ear
Method: The purpose of this assay was to determine the ability of a topically-applied compound to prevent mouse ear edema induced by topical application of arachidonic acid. Female Swiss Webster mice topically received vehicle or test compound (1.0 mg/ear) on both ears (10 μl on outer and inner ears). After 30 minutes, the right ear of all groups received arachidonic acid (4 mg/ear) and the left ear received vehicle alone. After an additional 1 hour, the mice were sacrificed and an ear punch (4 mm) was taken from each ear. The difference in right and left ear punch weights for each animal was determined to assess activity. […] See Young, J. M. et al., Invest. Dermatol., 80, (1983), pp 48-52.

[3] = system: naja naja (snake venom) phospholipase A2 -induced paw edema; test: Phospholipase A2-induced Paw Edema (PIPE); type: in vivo, male Wistar rats; settings: 0.1 M; injected with PLA2 (3 units/paw) in subplantar region of rat left hindpaw; two hours
Method: The ability of compounds to prevent naja naja (snake venom) phospholipase A2 -induced paw edema in male Wistar rats (100-125 g) was measured. PLA2 (3 units/paw) alone or with 0.1M of the test compound was injected in the subplantar region of the rat left hindpaw. Immediately subsequent to the injection and at two hours post administration the paw was immersed in a mercury bath, and paw displacement was measured on a recorder via a transducer. […] See Giessler, A. J. et al., Agents and Actions, Vol. 10, Trends in Inflammation Research (1981), p. 195.

[4] = system: epidermal DNA synthesis (proliferation of skin); test: Epidermal DNA Synthesis (in vivo DNA); design: species or system HRS/J hairless mice; settings: Standard; topical, 24 hours, 3H-thymidine incorporation
Method: The influence of compounds on the proliferation of skin was assessed by determining inhibition or stimulation of DNA synthesis. HRS/J hairless mice received topical application of a compound or vehicle alone on the dorsal aspect. After 24 hours, ^3 H-thymidine (25 μCi) was administered by intraperitoneal injection. After an additional hour, animals were sacrificed and the dorsal skin was removed. The epidermal layer was peeled from the dermis by heat separation. Unincorporated ^3 H-thymidine was removed by washing successively with trichloroacetic acid and ethanol. Samples were centrifuged at 2,000 rpm and supernatants discarded. The epidermal sheets were then extracted with warm trichloroacetic acid and the supernatants analyzed for ^3 H-thymidine incorporation by total DNA by a standard colorimetric assay. […] See Lowe, N. J., et at., Arch. Dermatol., 117 (1981), pp. 394-8; and Burton, K., Biochem. J. 62 (1956), pp. 315-22.

[5] = system: cultured human epidermal keratinocytes; test: Cultured Human Keratinocyte DNA Synthesis (in vitro DNA); type: cell-based; settings: Standard, 24 hours incubation, 3H-thymidine incorporation
Method: The effect of a compound on the proliferation of cultured human epidermal keratinocytes was measured. After incubation with a test compound for 24 hours, the cultures were pulse-labelled for three hours with 5 μCi of ^3 H-thymidine. The cultures were extracted for DNA successively with trichloroacetic acid and ethanol, and thereafter dissolved with NaOH. The radioactive incorporation of ^3 H-thymidine into DNA was determined.

[6] = 0.01 M, in vitro, pH 8.0, 37° C., read-out: PLA2, difference vs. control
[7] = pH 8, read-out: PLA2, difference vs. control

Sequence of porcine pancreatic PLA2 (P00592 23-146): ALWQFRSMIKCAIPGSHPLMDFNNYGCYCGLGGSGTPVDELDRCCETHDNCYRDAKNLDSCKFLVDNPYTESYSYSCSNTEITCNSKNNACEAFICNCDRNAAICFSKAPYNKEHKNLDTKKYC

SMILES: O=[N+]([O-])c1cc[n+]([O-])cc1Oc1cccc2c1CCCC2 [4-Nitro-3-(5,6,7,8-tetrahydro-1-naphthyloxy)pyridine-N-oxide]
- inhibition at 10000 µM (porcine pancreatic PLA2; [6]): 38%

SMILES: Cl.Nc1cnccc1Oc1cccc2ccccc12 [4-(1-Naphthyloxy)-3-pyridinamine hydrochloride]
- TPAEE, ear edema [1]: -40%

SMILES: CCN(CC)CCCC(C)Nc1c2ccc(Cl)cc2nc2ccc(OC)cc12 (stereo not shown) [quinacrine, reference compound]
- IC50 (porcine pancreatic PLA2): 350 µM

SMILES: O=[N+]([O-])c1cnccc1Oc1cccc2ccccc12 [4-(1-Naphthyloxy)-3-nitropyridine]
- TPAEE, ear edema [1]: -72%

SMILES: O=[N+]([O-])c1cc[n+]([O-])cc1Oc1ccc2cc(Br)ccc2c1 [3-(6-Bromo-2-naphthyloxy)-4-nitropyridine-N-oxide]
- TPAEE, ear edema [1]: -43%

SMILES: O=[N+]([O-])c1cc[n+]([O-])cc1Oc1cccc2ccccc12 [3-(1-Naphthyloxy)-4-nitropyridine-N-oxide]
- AAEE, ear edema [2]: -27%

SMILES: COc1ccc(Oc2cnccc2N)c2ccccc12 [3-(4-Methoxy-1-naphthyloxy)-4-pyridinamine]
- PIPE, difference in edema vs. control [3]: -40%

SMILES: O=[N+]([O-])c1cc[n+]([O-])cc1Nc1cccc2ccccc12 [N-(1-Naphthyl)-4-nitro-3-pyridinamine-N-oxide]
- TPAEE, ear edema [1]: -40%

SMILES: O=[N+]([O-])c1cc[n+]([O-])cc1Oc1ccc(Cl)c2ccccc12 [3-(4-Chloro-1-naphthyloxy)-4-nitropyridine-N-oxide]
- TPAEE, ear edema [1]: -41%

SMILES: Nc1ccncc1Oc1cccc2ccccc12 [3-(1-Naphthyloxy)-4-pyridinamine]
- AAEE, ear edema [2]: -66%
- inhibition at 10000 µM (porcine pancreatic PLA2; [6]): 54%
- PIPE, difference in edema vs. control [3]: -60%

SMILES: Nc1ccncc1Oc1ccc2ccccc2c1 [3-(2-Naphthyloxy)-4-pyridinamine]
- AAEE, ear edema [2]: -59%

SMILES: Nc1ccncc1Oc1cccc2c1CCCC2 [3-(5,6,7,8-Tetrahydro-1-naphthyloxy)-4-pyridinamine hydrochloride]
- inhibition at 10000 µM (porcine pancreatic PLA2; [7]): 110%

SMILES: Nc1ccncc1Oc1ccc(Cl)c2ccccc12 [3-(4-Chloro-1-naphthyloxy)-4-pyridinamine oxalate]
- inhibition at 10000 µM (porcine pancreatic PLA2; [7]): 110%

SMILES: COc1ccc2c(c1)c(CC(=O)O)c(C)n2C(=O)c1ccc(Cl)cc1 [indomethacin]
- ED50 ([2]; Standard, arachidonic acid ear edema, mouse): 1.5 mg/ear
- ED50 [4]: 1.75 mg/animal
- IC50 [5]: 38 µM

SMILES: C[C@]12CCC(=O)C=C1CC[C@@H]1[C@@H]2[C@@H](O)C[C@@]2(C)[C@H]1CC[C@]2(O)C(=O)CO [hydrocortisone, reference compound]
- ED50 ([1]; Standard, TPA ear edema, mouse): 47 μg/ear
